Data set [1] concerns the target T1, Ba/F3-FL-TYK2-P760L cells (Homo sapiens, UniProt P29597, P760L, cells depend on it).
T1 construct: BaF3-FL-T2P760L (nM)
Put plainly: Anti-proliferative assay, Ba/F3-FL-TYK2-P760L cells (Cell-Titer Glo). The data set is classed as cell-based. The settings on record: 72 h, read-out: BaF3-FL-T2P760L IC50. An outline of the steps: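 Compound exposure ran 72 h at 37 °C in 5% CO2 across nine 3-fold concentrations from a 20 μM top dose, added 24 h after seeding 2000 cells/well.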

A short description of data set [2]: Microsomal metabolic stability assay. The data set is classed as in vitro ADME. The settings on record: pH 7.4, 0.5 mg/mL protein, 1 μM compound. In outline:
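Parent loss was tracked by LC/MS/MS at 0, 5, 15, 30 and 45 min, with half-life derived from the ln(% remaining)–time slope. Incubation at 37 °C, pH 7.4 phosphate/EDTA buffer: 0.5 mg/mL microsomes, 1 μM compound, NADPH-regenerated (2 mM).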

Another data set is described as follows: Kinetic solubility. The data set is classed as physicochemical. The settings on record: phosphate buffer, aqueous buffer, kinetic from dmso stock, PBS (pH 7.4), 1% DMSO, room temperature. The procedure:
Aliquots of 8 μL of reference and test compound stock solutions (10 mM/5 mM) are added into 792 μL of 100 mM pH 7.4 phosphate buffer. The final DMSO concentration is 1%. Sample tubes are shaken for 2 hours at 1000 rpm at room temperature. Samples are centrifuged at 12000 rpm for 10 min to precipitate un-dissolved particles. And transfer the supernatants to a new tube or plate. Add 5 μL of samples (no diluted, 10 times diluted and 100 times diluted) and standard curve samples to 95 μL of ACN containing IS for LC-MS/MS analysis.

The target in the next data set is T2, TYK2-JH2 domain (Homo sapiens, UniProt P29597).
T2 construct: IC50 on JH2 domain activity (nM)
T2 sequence (P29597 589-875 limits assumed): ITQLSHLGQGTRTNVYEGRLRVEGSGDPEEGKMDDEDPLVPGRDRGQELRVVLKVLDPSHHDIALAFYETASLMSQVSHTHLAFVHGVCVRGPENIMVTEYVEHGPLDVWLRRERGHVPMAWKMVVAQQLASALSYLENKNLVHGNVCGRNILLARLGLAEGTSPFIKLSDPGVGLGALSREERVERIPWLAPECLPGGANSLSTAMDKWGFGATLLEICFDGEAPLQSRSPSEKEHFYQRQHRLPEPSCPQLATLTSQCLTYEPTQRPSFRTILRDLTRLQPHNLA
Put plainly: Binding activity test for JH2 domain of TYK2 (Tb-antibody/tracer FRET). An outline of the steps:
(§1)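 FRET read-out after 60 min at 25° C plus overnight at 4° C; tracer displacement detected via Tb-labelled antibody on the JH2 domain. Dose-response used 11 points at 3-fold dilution.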

A further data set addresses T3, JAK1 (Homo sapiens, UniProt P23458).
T3 construct: purchased Carna Biosciences
Put plainly: JAK1 kinase activity, microfluidic assay (Caliper EZ Reader II). The data set is classed as biochemical. The following applies: JAK1 5 nM, 1 mM ATP. The protocol: (§2) Testing for JAK1, JAK2 and TYK2 Kinase Activities
(§3) JAK activity was determined in the reaction buffer 50 mM HEPES, 0.01% Brij35, 10 mM MgCl2, 2 mM DTT by a microfluidic assay. The phosphorylation of a FAM labeled peptide substrate was monitored in the Caliper EZ Reader II (Perkin Elmer). The assay condition for each batch of enzyme (Carna Biosciences) was optimized to obtain 10% conversion rate of peptide substrate.
(§4) The test compounds were dissolved in DMSO to a stock concentration of 10 mM. Three-fold serially diluted compounds with top concentration of 5 μM were pre-incubated with JAK1, JAK2 or TYK2 for 10 min at ambient temperature. The final DMSO concentration of assay mixture was 1%. […] The reaction was stopped by adding 50 mM EDTA.
(§5) The percent inhibition was calculated by the following formula:
(§6) [formula] • wherein • Conversion %_max=the conversion rate in the positive well without addition of compound • Conversion %_sample=the conversion rate of test compounds • Conversion %_min=the conversion rate in the well without addition of enzyme
(§7) The dose-response (percent inhibition) curve was plotted and IC50 values were determined by GraphPad software.

A further data set has as its target T4, JAK2 (Homo sapiens, UniProt O60674).
T4 construct: purchased Carna Biosciences
Put plainly: JAK2 kinase activity, microfluidic assay (Caliper EZ Reader II). The data set is classed as biochemical. The settings on record: JAK2 0.125 nM, 1 mM ATP. The protocol:
as §2, §3, §4, §5, §6, §7

The target in a further data set is T5, TYK2 (Homo sapiens, UniProt P29597).
T5 construct: purchased Carna Biosciences
T5 sequence (P29597 whole entry): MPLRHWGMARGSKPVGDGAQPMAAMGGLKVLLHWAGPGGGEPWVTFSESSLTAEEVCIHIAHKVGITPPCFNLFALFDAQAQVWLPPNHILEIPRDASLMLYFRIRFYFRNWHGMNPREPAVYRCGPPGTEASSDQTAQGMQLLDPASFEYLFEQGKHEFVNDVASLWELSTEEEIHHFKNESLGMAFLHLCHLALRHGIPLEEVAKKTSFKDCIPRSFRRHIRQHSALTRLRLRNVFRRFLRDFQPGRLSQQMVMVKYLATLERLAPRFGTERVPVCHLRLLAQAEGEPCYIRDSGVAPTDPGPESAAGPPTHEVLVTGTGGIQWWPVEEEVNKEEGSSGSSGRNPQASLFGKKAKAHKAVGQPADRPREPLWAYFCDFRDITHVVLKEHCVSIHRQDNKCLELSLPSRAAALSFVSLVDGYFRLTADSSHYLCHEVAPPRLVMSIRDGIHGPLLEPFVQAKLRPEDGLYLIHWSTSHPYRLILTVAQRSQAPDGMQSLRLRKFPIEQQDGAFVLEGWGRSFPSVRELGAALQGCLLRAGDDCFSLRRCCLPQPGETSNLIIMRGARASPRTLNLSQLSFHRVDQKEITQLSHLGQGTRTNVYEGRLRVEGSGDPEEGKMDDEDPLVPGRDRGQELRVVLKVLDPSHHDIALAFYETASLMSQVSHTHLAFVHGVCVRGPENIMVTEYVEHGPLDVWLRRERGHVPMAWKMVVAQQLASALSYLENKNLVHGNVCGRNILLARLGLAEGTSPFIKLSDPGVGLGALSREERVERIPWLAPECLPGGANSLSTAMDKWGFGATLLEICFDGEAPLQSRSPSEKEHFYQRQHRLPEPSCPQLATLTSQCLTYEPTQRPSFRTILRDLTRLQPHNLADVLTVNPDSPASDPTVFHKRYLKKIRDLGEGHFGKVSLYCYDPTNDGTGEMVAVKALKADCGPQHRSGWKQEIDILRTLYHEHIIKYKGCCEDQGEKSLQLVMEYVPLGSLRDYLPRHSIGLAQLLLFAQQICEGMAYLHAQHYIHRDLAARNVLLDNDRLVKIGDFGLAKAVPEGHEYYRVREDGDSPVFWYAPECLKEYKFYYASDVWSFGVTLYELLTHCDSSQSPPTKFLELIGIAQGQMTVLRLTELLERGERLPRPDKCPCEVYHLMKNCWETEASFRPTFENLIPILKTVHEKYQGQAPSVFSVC
Briefly: TYK2 kinase activity, microfluidic assay (Caliper EZ Reader II). The data set is classed as biochemical. The settings on record: TYK2 1 nM, 1 mM ATP. The procedure: as §2, §3, §4, §5, §6, §7

The next data set concerns the target T6, Ba/F3-TEL-TYK2 cells (Homo sapiens, UniProt P29597).
T6 construct: fused on or other part: Dimerization domain of TEL (ETV6) fused to the TYK2 kinase domain; P41212 (Transcription factor ETV6)
Put plainly: Anti-proliferative assay, Ba/F3-TEL-TYK2 cells (Cell-Titer Glo). The data set is classed as cell-based. The settings on record: 72 h, read-out: BaF3-TEL-TYK2 IC50. The procedure: Anti-Proliferative Assay Dimerization domain of Tel protein fused with JAK kinase domain was permanently transduced into Ba/F3 cells, whose proliferation is dependent on JAK activity in the absence of IL-3 induction. These engineered Ba/F3 cells (Ba/F3-FL-TYK2-[…], Ba/F3-TEL-TYK2 and Ba/F3-TEL-JAK2) were used to monitor JAK inhibitory activities of the compounds in the cellular. […] Cells were seeded at 2000/well of white flat bottom 96-well plates. The well containing medium only was used as background control. After 24 h growth, cells were treated with compounds. The test compounds were dissolved in DMSO to a stock concentration of 20 mM. 3-fold serially diluted compounds for 9 concentrations with top concentration of 20 μM was added into the each well. […] The cells continued to grow at 37° C. in 5% CO2 for 72 h after compound treatment. The viability was measured by cellular ATP determination using the Cell-Titer Glo luciferase reagent (Promega). The Luminescence value was recorded by a multi-label reader Envision (PerkinElmer).

The next data set addresses T7, JAK1-JH2 domain (Homo sapiens, UniProt P23458).
T7 construct: IC50 on JH2 domain activity (nM)
Briefly: Binding activity test for JH2 domain of JAK1 (Tb-antibody/tracer FRET). In outline: as §1

[3] abbreviates: dog liver microsomes, read-out: Dog LM Clint.
Where [4] appears, read: dog liver microsomes, read-out: Dog LM T½.
The mark [5] stands for this setting: human liver microsomes, read-out: Human LM Clint.
The mark [6] stands for this setting: human liver microsomes, read-out: Human LM T½.
[7] abbreviates: rat liver microsomes, read-out: Rat LM Clint.
[8] abbreviates: rat liver microsomes, read-out: Rat LM T½.

One may read the solubility as how much of the substance goes into solution per volume. As a reminder, the pIC50 is the IC50 on a negative log10 scale, so that one unit is a factor of ten.

pIC50: −log10 of the molar value. In brackets after ≈: the same amount, converted by molar mass. Read-outs that look alike come from different tables or passages of the source.

T1 sequence (P29597 whole entry P760L): as the sequence (P29597 whole entry) above, with P760L counted along it
T6 sequence (P29597 whole entry, change not shown, the tested form may be a part): as the sequence (P29597 whole entry) above
T3 sequence (P23458 whole entry): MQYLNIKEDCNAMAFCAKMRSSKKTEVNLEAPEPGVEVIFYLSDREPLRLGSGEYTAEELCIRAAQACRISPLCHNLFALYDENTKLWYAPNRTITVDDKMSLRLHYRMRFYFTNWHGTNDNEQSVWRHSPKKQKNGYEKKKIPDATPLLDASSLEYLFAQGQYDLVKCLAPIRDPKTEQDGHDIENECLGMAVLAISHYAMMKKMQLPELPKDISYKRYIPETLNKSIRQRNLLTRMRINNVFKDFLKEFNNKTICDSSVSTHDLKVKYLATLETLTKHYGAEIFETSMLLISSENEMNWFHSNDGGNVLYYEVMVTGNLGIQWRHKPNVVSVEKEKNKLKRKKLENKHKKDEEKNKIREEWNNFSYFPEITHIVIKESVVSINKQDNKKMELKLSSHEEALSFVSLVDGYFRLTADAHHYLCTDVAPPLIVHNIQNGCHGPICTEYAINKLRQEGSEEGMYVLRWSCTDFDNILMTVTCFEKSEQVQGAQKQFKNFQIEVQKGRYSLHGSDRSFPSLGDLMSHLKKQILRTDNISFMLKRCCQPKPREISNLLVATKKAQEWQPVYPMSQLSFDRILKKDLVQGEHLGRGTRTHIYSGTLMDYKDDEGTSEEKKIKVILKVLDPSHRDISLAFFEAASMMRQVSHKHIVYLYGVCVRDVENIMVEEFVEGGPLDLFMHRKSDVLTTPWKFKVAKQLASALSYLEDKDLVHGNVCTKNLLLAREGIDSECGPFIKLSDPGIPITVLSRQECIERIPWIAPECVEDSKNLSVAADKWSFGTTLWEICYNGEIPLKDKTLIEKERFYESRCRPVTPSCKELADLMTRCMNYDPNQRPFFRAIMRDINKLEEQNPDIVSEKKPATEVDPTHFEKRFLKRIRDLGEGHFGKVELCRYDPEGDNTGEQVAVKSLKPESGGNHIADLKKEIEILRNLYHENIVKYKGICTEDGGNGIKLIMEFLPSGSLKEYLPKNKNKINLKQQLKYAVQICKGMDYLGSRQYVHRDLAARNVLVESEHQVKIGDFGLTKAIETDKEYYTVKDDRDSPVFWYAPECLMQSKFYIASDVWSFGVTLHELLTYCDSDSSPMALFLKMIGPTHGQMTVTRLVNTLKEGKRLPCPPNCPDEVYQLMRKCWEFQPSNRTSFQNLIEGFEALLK
T4 sequence (O60674 whole entry): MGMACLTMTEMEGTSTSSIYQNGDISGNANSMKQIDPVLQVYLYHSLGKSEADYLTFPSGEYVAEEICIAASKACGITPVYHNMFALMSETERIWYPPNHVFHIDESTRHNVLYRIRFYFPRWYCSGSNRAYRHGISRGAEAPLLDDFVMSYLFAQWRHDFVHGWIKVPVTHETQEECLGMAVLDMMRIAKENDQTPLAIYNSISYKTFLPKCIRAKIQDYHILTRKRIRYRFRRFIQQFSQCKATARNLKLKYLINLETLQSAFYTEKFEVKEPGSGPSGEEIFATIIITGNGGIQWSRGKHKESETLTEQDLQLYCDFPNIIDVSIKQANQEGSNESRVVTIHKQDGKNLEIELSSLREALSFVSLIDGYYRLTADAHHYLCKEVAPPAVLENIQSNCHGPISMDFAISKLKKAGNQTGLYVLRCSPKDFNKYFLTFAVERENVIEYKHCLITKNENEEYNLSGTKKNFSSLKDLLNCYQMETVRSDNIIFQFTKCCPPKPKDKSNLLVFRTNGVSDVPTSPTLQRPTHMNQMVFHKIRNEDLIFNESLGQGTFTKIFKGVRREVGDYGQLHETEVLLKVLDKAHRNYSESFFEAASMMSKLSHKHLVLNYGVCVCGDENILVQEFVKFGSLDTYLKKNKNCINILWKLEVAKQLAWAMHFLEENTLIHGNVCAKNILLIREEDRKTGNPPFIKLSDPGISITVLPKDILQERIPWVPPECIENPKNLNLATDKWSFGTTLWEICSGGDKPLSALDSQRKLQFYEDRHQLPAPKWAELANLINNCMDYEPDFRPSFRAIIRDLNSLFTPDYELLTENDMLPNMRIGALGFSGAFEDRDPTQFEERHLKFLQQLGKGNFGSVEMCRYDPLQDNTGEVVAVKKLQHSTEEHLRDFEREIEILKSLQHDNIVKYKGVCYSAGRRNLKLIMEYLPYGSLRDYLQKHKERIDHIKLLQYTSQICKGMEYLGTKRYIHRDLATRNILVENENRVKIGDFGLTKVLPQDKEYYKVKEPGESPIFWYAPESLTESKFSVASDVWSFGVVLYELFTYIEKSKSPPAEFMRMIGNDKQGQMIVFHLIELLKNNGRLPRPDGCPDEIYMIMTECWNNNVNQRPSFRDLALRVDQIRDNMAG
T7 sequence (P23458 583-855 limits assumed): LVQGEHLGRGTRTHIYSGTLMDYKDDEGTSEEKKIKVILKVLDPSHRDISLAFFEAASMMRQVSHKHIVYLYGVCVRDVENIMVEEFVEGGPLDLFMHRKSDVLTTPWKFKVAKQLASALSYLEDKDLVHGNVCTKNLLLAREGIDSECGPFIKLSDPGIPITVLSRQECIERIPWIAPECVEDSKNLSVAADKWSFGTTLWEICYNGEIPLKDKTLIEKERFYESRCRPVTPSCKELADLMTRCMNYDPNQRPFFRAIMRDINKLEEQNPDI

In the case of `[2H]C([2H])([2H])NC(=O)c1cnc(NC(=O)C2CC2)cc1Nc1ccc2ncn(CC)c2c1OC` [Example 167, 6-(Cyclopropanecarboxamido)-4-((1-ethyl-7-methoxy-1H-benzo[d]imidazol-6-yl)amino)-N-(methyl-d3)nicotinamide], the GI50 in data set [1] amounted to 100 nM. Further, the microsomal CLint at 1 μM was 45 µL/min/mg in [2] (setting [3]), 57.8 µL/min/mg in [2] (setting [5]) and 149 µL/min/mg in [2] (setting [7]). Further, the half-life at 1 μM in data set [2] (setting [4]) was determined as 30.8 min; in data set [2] (setting [6]), 24 min; in data set [2] (setting [8]) it was 9.29 min. In addition, the solubility at 2 h in “Kinetic solubility” was found to be 109 µM (≈ 44.9 µg/mL).
As to `CCn1ccc2scc(Nc3cc(NC(=O)C4CC4)ncc3C(=O)NC)c2c1=O` [Example 17, 6-(Cyclopropanecarboxamido)-4-((5-ethyl-4-oxo-4,5-dihydrothieno[3,2-c]pyridin-3-yl)amino)-N-methylnicotinamide], the pIC50 was 9.69 at TYK2-JH2 domain, less than 5.30 against JAK1, less than 5.30 against JAK2 and less than 5.30 against TYK2. The figures for the GI50 (in data set [1]; on Ba/F3-TEL-TYK2 cells) were 114 nM and greater than 10000 nM, respectively. Also, the microsomal CLint at 1 μM in data set [2] (setting [3]) amounted to 47.1 µL/min/mg; in data set [2] (setting [5]), 128 µL/min/mg; in data set [2] (setting [7]) it was 209 µL/min/mg. Besides, the half-life at 1 μM in data set [2] (setting [4]) worked out at 73.6 min; in data set [2] (setting [6]) it was 27.1 min; in data set [2] (setting [8]), 16.6 min.
Consider `CNC(=O)c1nnc(NC(=O)C2CC2)cc1Nc1csc2ccn(C)c(=O)c12` [Example 27, 6-(Cyclopropanecarboxamido)-N-methyl-4-((5-methyl-4-oxo-4,5-dihydrothieno[3,2-c]pyridin-3-yl)amino)pyridazine-3-carboxamide], for which the pIC50 at TYK2-JH2 domain is 9.32; on JAK1 it was less than 5.30; on JAK2, less than 5.30; against TYK2, less than 5.30. The GI50 in data set [1] was 50.9 nM; at Ba/F3-TEL-TYK2 cells, greater than 20000 nM.
`[2H]C([2H])([2H])NC(=O)c1cnc2cc1Nc1cc(cc(-c3ncn(CC)n3)c1OC)COCc1nc(ccc1F)N2` [Example 85, 11-(1-Ethyl-1H-1,2,4-triazol-3-yl)-18-fluoro-10-methoxy-N-(methyl-d3)-15-oxa-2,4,8,21-tetraazatetracyclo[15.3.1.1^{3,7}.1^{9,13}]tricosa-1(20),3,5,7(23),9,11,13(22),17(21),18-nonaene-6-carboxamide]: in [1], the GI50 was 142 nM. This compound came in with a solubility at 2 h in “Kinetic solubility” of 15.2 µM (≈ 7.74 µg/mL).
The compound `CCn1ccc2c(c(Nc3cc(NC(=O)C4CC4)nnc3C(=O)NC)cn2C)c1=O` [Example 23, 6-(Cyclopropanecarboxamido)-4-((5-ethyl-1-methyl-4-oxo-4,5-dihydro-1H-pyrrolo[3,2-c]pyridin-3-yl)amino)-N-methylpyridazine-3-carboxamide] gave a pIC50 on TYK2-JH2 domain of 8.88. The values for the GI50 (in [1]; on Ba/F3-TEL-TYK2 cells) were 62.9 nM and greater than 20000 nM, respectively. Also, the figures for the microsomal CLint at 1 μM in [2] (setting [3]), in data set [2] (setting [5]) and in data set [2] (setting [7]) were 21.4 µL/min/mg, 80 µL/min/mg and 35.8 µL/min/mg, respectively. Also, the half-life at 1 μM was 64.8 min in data set [2] (setting [4]), 17.3 min in data set [2] (setting [6]) and 38.7 min in data set [2] (setting [8]).
As to `[2H]C([2H])([2H])NC(=O)c1cnc(NC(=O)C2CC2)cc1Nc1ccc2cnn(C(C)C#N)c2c1OC` (centres unmarked) [Example 249, 4-((1-(1-Cyanoethyl)-7-methoxy-1H-indazol-6-yl)amino)-6-(cyclopropanecarboxamido)-N-(methyl-d3)nicotinamide], the negative-log IC50 (pIC50) at TYK2-JH2 domain was 9.11; on JAK1-JH2 domain, 7.59. Besides, the JAK1/TYK2 selectivity at TYK2-JH2 domain (ratio JAK1-JH2 IC50 / TYK2-JH2 IC50) was determined as 32.5. For the same compound, the GI50 in data set [1] was determined as 357 nM. Moreover, the concentration in solution in “Kinetic solubility” (solubility at 2 h) was 47.4 µM (≈ 20.7 µg/mL).
The compound `[2H]C([2H])([2H])NC(=O)c1cnc(Nc2ccc(F)cn2)cc1Nc1cn(CCOC)c2ccn(CC)c(=O)c12` [Example 192, 4-((5-Ethyl-1-(2-methoxyethyl)-4-oxo-4,5-dihydro-1H-pyrrolo[3,2-c]pyridin-3-yl)amino)-6-((5-fluoropyridin-2-yl)amino)-N-(methyl-d3)nicotinamide] showed a pIC50 at TYK2-JH2 domain of 8.47. Besides, the GI50 in data set [1] was determined as 124 nM. Moreover, the microsomal CLint at 1 μM came to 21.9 µL/min/mg in data set [2] (setting [3]), 26.8 µL/min/mg in [2] (setting [5]) and 72.6 µL/min/mg in data set [2] (setting [7]). In addition, the half-life at 1 μM is 63.4 min in data set [2] (setting [4]), 51.6 min in [2] (setting [6]) and 19.1 min in [2] (setting [8]). For the same compound, the solubility at 2 h in the data set “Kinetic solubility” was found to be 17.8 µM (≈ 8.59 µg/mL).
Consider `CNC(=O)c1nnc(NC(=O)C2CC2)cc1Nc1cn(C)c2ccn(C)c(=O)c12` [Example 49, 6-(Cyclopropanecarboxamido)-4-((1,5-dimethyl-4-oxo-4,5-dihydro-1H-pyrrolo[3,2-c]pyridin-3-yl)amino)-N-methylpyridazine-3-carboxamide], for which, in [1], the GI50 was 111 nM. The microsomal CLint at 1 μM in data set [2] (setting [3]) was less than 11.5 µL/min/mg; in [2] (setting [5]), 14.4 µL/min/mg; in data set [2] (setting [7]), 32.4 µL/min/mg. Also, the results for the half-life at 1 μM in [2] (setting [4]), in data set [2] (setting [6]) and in data set [2] (setting [8]) were greater than 120 min, 96.2 min and 42.8 min, respectively. The compound also gave a solubility at 2 h in the data set “Kinetic solubility” of 6.3 µM (≈ 2.49 µg/mL).
Compound `[2H]C([2H])([2H])NC(=O)c1cnc(Nc2ccn(C)n2)cc1Nc1nn(C)c2ccn(CC)c(=O)c12` [Example 219] showed a negative logarithm of the IC50 (pIC50) on TYK2-JH2 domain of 8.54. Moreover, the GI50 in [1] turned out to be 1260 nM. In addition, the solubility at 2 h in the data set “Kinetic solubility” stood at 33.9 µM (≈ 14.4 µg/mL).

The values above are taken from patent US20250115597A1, “TYK2 INHIBITORS AND COMPOSITIONS AND METHODS THEREOF” (LYNK PHARMACEUTICALS CO. LTD., priority 2021, published 2025).
